Experimental data from patent US6403534B1, “Uracil compounds and use thereof” (Sumitomo Chemical Company, Limited, priority 2000, dated 2002).

How the values were obtained:
ivyleaf morningglory [1] = assay: Test Example 4: soil surface treatment of field; format: in vivo, Ipomoea hederacea; set-up: key: “0” means that there was no or little difference in the degree of germination or growth between the treated and the untreated tested plants at the time of examination; “10” means that the test plants died completely or their germination or growth was completely inhibited; details: index 0 to 10, 12 days after application
From the text: (§1) Test for Soil Surface Treatment of Field A plastic pot having an area of (26.5×19) cm^2 and a depth of 7 cm was filled with soil and then seeded with ivyleaf morningglory, velvetleaf, barnyardgrass and giant foxtail. Then, each of the test compounds was formulated into an emulsifiable concentrate according to Formulation Example 2 and then diluted to the prescribed amount with water, and the dilution was uniformly sprayed over the surface of the soil with a sprayer at a rate of 1000 liters per hectare. After the application, the test plants were grown in the greenhouse for 12 days, and the herbicidal activity was examined. The herbicidal activity was evaluated by the same method as in Test Example 3.

blackgrass [2] = assay: Test Example 3: foliar treatment of field; format: in vivo, Alopecurus myosuroides; set-up: key: “0” means that there was no or little difference in the degree of germination or growth between the treated and the untreated tested plants at the time of examination; “10” means that the test plants died completely or their germination or growth was completely inhibited; details: index 0 to 10, 16 days after application
Procedure: (§2) Test for Foliar Treatment of Field A cylindrical plastic pot having a diameter of 10 cm and a depth of 10 cm was filled with soil and then seeded with ivyleaf morningglory and blackgrass. These test plants were grown in a greenhouse for 10 days. Then, each of the test compounds was formulated into an emulsifiable concentrate according to Formulation Example 2 and then diluted to the prescribed amount with water containing a spreading agent and the dilution was uniformly sprayed over the foliage of the test plants with a sprayer at a rate of 1000 liters per hectare. After the application, the test plants were grown in the greenhouse for 16 days, and the herbicidal activity was examined.

giant foxtail = assay: Test Example 4: soil surface treatment of field; format: in vivo, Setaria faberi; set-up: key: “0” means that there was no or little difference in the degree of germination or growth between the treated and the untreated tested plants at the time of examination; “10” means that the test plants died completely or their germination or growth was completely inhibited; details: index 0 to 10, 12 days after application
From the text: as §1

velvetleaf [3] = assay: Test Example 4: soil surface treatment of field; format: in vivo, Abutilon theophrasti; set-up: key: “0” means that there was no or little difference in the degree of germination or growth between the treated and the untreated tested plants at the time of examination; “10” means that the test plants died completely or their germination or growth was completely inhibited; details: index 0 to 10, 12 days after application
From the text: as §1

barnyardgrass [4] = assay: Test Example 4: soil surface treatment of field; format: in vivo, Echinochloa crus-galli; set-up: key: “0” means that there was no or little difference in the degree of germination or growth between the treated and the untreated tested plants at the time of examination; “10” means that the test plants died completely or their germination or growth was completely inhibited; details: index 0 to 10, 12 days after application
From the text: as §1

ivyleaf morningglory [5] = assay: Test Example 3: foliar treatment of field; format: in vivo, Ipomoea hederacea; set-up: key: “0” means that there was no or little difference in the degree of germination or growth between the treated and the untreated tested plants at the time of examination; “10” means that the test plants died completely or their germination or growth was completely inhibited; details: index 0 to 10, 16 days after application
Procedure: as §2

velvetleaf [6] = assay: Test Example 2: soil surface treatment of field; format: in vivo, Abutilon theophrasti; details: soil surface spray, 500 g/ha, examined 19 days after application
From the text: (§3) Test for Soil Surface Treatment of Field
(§4) A cylindrical plastic pot having a diameter of 10 cm and a depth of 10 cm was filled with soil and then seeded with barnyardgrass, blackgrass, ivyleaf morningglory and velvetleaf. Then, each of compounds 1-2, 1-3, 1-7, 1-19 and 1-28 was formulated into an emulsifiable concentrate according to Formulation Example 2 and then diluted to the prescribed amount with water, and the dilution was uniformly sprayed over the surface of the soil with a sprayer at a rate of 1000 liters per hectare. After the application, the test plants were grown in the greenhouse for 19 days, and the herbicidal activity was examined.

barnyardgrass [7] = assay: Test Example 2: soil surface treatment of field; format: in vivo, Echinochloa crus-galli; details: soil surface spray, 500 g/ha, examined 19 days after application
From the text: as §3, §4

blackgrass [8] = assay: Test Example 2: soil surface treatment of field; format: in vivo, Alopecurus myosuroides; details: soil surface spray, 500 g/ha, examined 19 days after application
From the text: as §3, §4

barnyardgrass [9] = assay: Test Example 1: foliar treatment of field; format: in vivo, Echinochloa crus-galli; details: foliar spray, 125 g/ha, plants grown 14 days before, examined 16 days after application
Procedure: (§5) Test for Foliar Treatment of Field
(§6) A cylindrical plastic pot having a diameter of 10 cm and a depth of 10 cm was filled with soil and then seeded with barnyardgrass, blackgrass, ivyleaf morningglory and velvetleaf These test plants were grown in a greenhouse for 14 days. Then, each of compounds 1-2, 1-3, 1-7, 1-19 and 1-28 was formulated into an emulsifiable concentrate according to Formulation Example 2 and then diluted to the prescribed amount with water containing a spreading agent and the dilution was uniformly sprayed over the foliage of the test plants with a sprayer at a rate of 1000 liters per hectare. After the application, the test plants were grown in the greenhouse for 16 days, and the herbicidal activity was determined.

ivyleaf morningglory [10] = assay: Test Example 1: foliar treatment of field; format: in vivo, Ipomoea hederacea; details: foliar spray, 125 g/ha, plants grown 14 days before, examined 16 days after application
Procedure: as §5, §6

velvetleaf [11] = assay: Test Example 1: foliar treatment of field; format: in vivo, Abutilon theophrasti; details: foliar spray, 125 g/ha, plants grown 14 days before, examined 16 days after application
Procedure: as §5, §6

blackgrass [12] = assay: Test Example 1: foliar treatment of field; format: in vivo, Alopecurus myosuroides; details: foliar spray, 125 g/ha, plants grown 14 days before, examined 16 days after application
Procedure: as §5, §6

ivyleaf morningglory [13] = assay: Test Example 2: soil surface treatment of field; format: in vivo, Ipomoea hederacea; details: soil surface spray, 500 g/ha, examined 19 days after application
From the text: as §3, §4

Compound	Herbicidal activity Ivyleaf morningglory (ivyleaf morningglory [1]; dosage 32 g/ha)	Herbicidal activity Ivyleaf morningglory (ivyleaf morningglory [1]; dosage 125 g/ha)	Herbicidal activity Ivyleaf morningglory (ivyleaf morningglory [1]; dosage 500 g/ha)	Herbicidal activity Blackgrass (blackgrass [2]; dosage 8 g/ha)	Herbicidal activity Blackgrass (blackgrass [2]; dosage 32 g/ha)	Herbicidal activity Blackgrass (blackgrass [2]; dosage 125 g/ha)	Herbicidal activity Giant foxtail (giant foxtail; dosage 32 g/ha)	Herbicidal activity Giant foxtail (giant foxtail; dosage 125 g/ha)	Herbicidal activity Giant foxtail (giant foxtail; dosage 500 g/ha)	Herbicidal activity Velvet leaf (velvetleaf [3]; dosage 32 g/ha)	Herbicidal activity Velvet leaf (velvetleaf [3]; dosage 125 g/ha)	Herbicidal activity Velvet leaf (velvetleaf [3]; dosage 500 g/ha)	herbicidal activity (germination of velvetleaf) (velvetleaf [6])	herbicidal activity (germination of barnyardgrass) (barnyardgrass [7])	herbicidal activity (germination of blackgrass) (blackgrass [8])	herbicidal activity (growth of barnyardgrass) (barnyardgrass [9])	herbicidal activity (growth of ivyleaf morningglory) (ivyleaf morningglory [10])	herbicidal activity (growth of velvetleaf) (velvetleaf [11])	herbicidal activity (growth of blackgrass) (blackgrass [12])	herbicidal activity (germination of ivyleaf morningglory) (ivyleaf morningglory [13])	other results
C=CCOC(=O)C(C)(C)Oc1cc(-n2c(=O)cc(C(F)(F)F)n(C)c2=O)c(F)cc1Cl [Comparative compound A, reference compound]	0	4	8	3	4	6	4	10	10	3	10	10									Herbicidal activity Barnyard grass (barnyardgrass [4]; dosage 32 g/ha): 1; Herbicidal activity Barnyard grass (barnyardgrass [4]; dosage 125 g/ha): 7; Herbicidal activity Barnyard grass (barnyardgrass [4]; dosage 500 g/ha): 10; Herbicidal activity Ivyleaf morningglory (ivyleaf morningglory [5]; dosage 8 g/ha): 7; Herbicidal activity Ivyleaf morningglory (ivyleaf morningglory [5]; dosage 32 g/ha): 10; Herbicidal activity Ivyleaf morningglory (ivyleaf morningglory [5]; dosage 125 g/ha): 10
COC(=O)C1(Oc2cc(-n3c(=O)cc(C(F)(F)F)n(C)c3=O)c(F)cc2Cl)CC1 [Compound 1-2, methyl 1-[2-chloro-4-fluoro-5-{3-methyl-2,6-dioxo-4-(trifluoro-methyl)-1,2,3,6-tetrahydropyrimidin-1-yl}phenoxy]cyclo-propanecarboxylate]													completely controlled	completely controlled	completely controlled	completely controlled	completely controlled	completely controlled	completely controlled	completely controlled	
CCOC(=O)C1(Oc2cc(-n3c(=O)cc(C(F)(F)F)n(C)c3=O)c(F)cc2Cl)CC1 [Compound 1-3, ethyl 1-[2-chloro-4-fluoro-5-{3-methyl-2,6-dioxo-4-(trifluoromethyl)-1,2,3,6-tetrahydropyrimidin-1-yl}phenoxy]cyclopropanecarboxylate]													completely controlled	completely controlled	completely controlled	completely controlled	completely controlled	completely controlled	completely controlled	completely controlled	
C=CCOC(=O)C1(Oc2cc(-n3c(=O)cc(C(F)(F)F)n(C)c3=O)c(F)cc2Cl)CC1 [Compound 1-7]	2	10	10	5	6	10	10	10	10	10	10	10	completely controlled	completely controlled	completely controlled	completely controlled	completely controlled	completely controlled	completely controlled	completely controlled	Herbicidal activity Barnyard grass (barnyardgrass [4]; dosage 32 g/ha): 6; Herbicidal activity Barnyard grass (barnyardgrass [4]; dosage 125 g/ha): 10; Herbicidal activity Barnyard grass (barnyardgrass [4]; dosage 500 g/ha): 10; Herbicidal activity Ivyleaf morningglory (ivyleaf morningglory [5]; dosage 8 g/ha): 10; Herbicidal activity Ivyleaf morningglory (ivyleaf morningglory [5]; dosage 32 g/ha): 10; Herbicidal activity Ivyleaf morningglory (ivyleaf morningglory [5]; dosage 125 g/ha): 10
CSC(=O)C1(Oc2cc(-n3c(=O)cc(C(F)(F)F)n(C)c3=O)c(F)cc2Cl)CC1 [Compound 1-19]													completely controlled	completely controlled	completely controlled	completely controlled	completely controlled	completely controlled	completely controlled	completely controlled	
COC(=O)C(CC(C)C)NC(=O)C1(Oc2cc(-n3c(=O)cc(C(F)(F)F)n(C)c3=O)c(F)cc2Cl)CC1 (stereo not shown) [Compound 1-28]													completely controlled	completely controlled	completely controlled	completely controlled	completely controlled	completely controlled	completely controlled	completely controlled	
